Experiments:
[1] = system: Male obese-diabetic viable yellow (AvY) mice; assay: Hypoglycemic efficacy: blood glucose in obese-diabetic viable yellow mice fed compound admixed in chow; type: in vivo; conditions: dose .03 weight percent in diet; for % BG14 (BG0 = 100): blood glucose at day 14 as percent of initial value
Procedure: Male obese-diabetic viable yellow (AvY) mice were divided into two groups of 6 each. One group was fed repelletized purina 5008 Chow and the second group was fed repelletized Purina 5008 Chow, admixed with varying doses of the candidate compound. Blood samples were taken before the experiment was initiated and 7 and 14 days after initiation. Body weight and food consumption were monitored. The blood glucose level after 7 or 14 days of treatment was measured and recorded as a percent of the initial value, compared to the untreated control (first) group. The results are presented in the table 1 below; and include the dose of the candidate compound as a weight percent of the amount incorporated into the diet. Also in the table is a representative value for a positive control (a known hypoglycemic agent reported by a Takeda group [J. Med. Chem., 35, 2617]) administered in the same way as a canditate compound of the present invention.
BG means blood glucose level; BG0 means blood glucose level at day zero and BG14 means blood glucose level at day 14 accordingly.

Row | SMILES | melting point | % BG14 (BG0 = 100), (day 7) ([1]; blood glucose at day 7 as percent of initial value) | % BG14 (BG0 = 100) [1]
1 | CS(=O)(=O)N(CC(=O)O)c1ccc2oc(Cc3ccc4ccccc4c3)cc2c1 [Example 6, N-[5-(-2-(2-naphthylmethyl)benzofuranyl)]-N-methylsulfonylglycine] | 160 to 165 °C (dec.) | 93.1 (day 7) % | 
2 | O=C(O)CN(c1ccc(OCCc2coc(-c3ccccc3)n2)cc1)S(=O)(=O)Cc1ccccc1 [Example 5, N-[4-(2-(phenyloxazol-4yl)ethoxy)phenyl]-N-phenylmethyl sulfonylglycine] | 147 to 149 °C |  | 77.0%
3 | CS(=O)(=O)N(CC(=O)[O-])c1ccc(OCCc2coc(-c3ccccc3)n2)cc1.[Na+] [Example 3, Sodium N-(4-(2-Phenyl-4-oxazolylethoxy)phenyl)-N-methylsulfonylglycinate] |  |  | 57.9%
4 | CS(=O)(=O)N(CC(=O)O)c1ccc(OCCc2coc(-c3ccccc3)n2)cc1 [Example 2, N-4[-(2-(Phenyloxazol-4yl)ethoxy)phenyl]-N-methylsufonyl-glycine] | 200 to 201 °C |  | 76.4%
5 | CN(C)S(=O)(=O)N(CC(=O)O)c1ccc(OCCc2coc(-c3ccccc3)n2)cc1 [Example 4, N-[4-(2-(Phenyloxazol-4yl)ethoxy)phenyl]-N-N′N′-dimethyl aminosulfonylglycine] | 154 to 156 °C |  | 70.1%
6 | CC(C)S(=O)(=O)N(CC(=O)O)c1ccc(OCCc2coc(-c3ccccc3)n2)cc1 [Example 1, N-[4-(2-(Phenyloxazol-4yl)ethoxyl]phenyl)-N-isopropyl Sulfonylglycine] | 136 to 139 °C |  | 53.1%
